The text below walks through data of PMC9658668, “Phytochemical Variability, In Vitro and In Vivo Biological Investigations, and In Silico Antibacterial Mechanisms of Mentha piperita Essential Oils Collected from Two Different Regions in Morocco” (Foods, 2022).

Marks after values point to notes of the source that are not given here.

In one test the test system is P. aeruginosa ATCC 27853. The experiment in a line: MIC and MBC determination. It counts as cell-based, Pseudomonas aeruginosa. Also noted: unit not given beside the values. The note with it: chloramphenicol, unit not given. Here is the method: (§1) The antibacterial activity of M. piperita essential oils (MPEO) from Ouezzane and Azrou regions (Morocco) was evaluated against the following six bacterial strains: three gram-positive bacteria (Staphylococcus aureus ATCC 29213, Listeria monocytogenes ATCC 13932, Bacillus subtilis ATCC 6633), and three gram-negative bacteria (Escherichia coli ATCC 25922, Salmonella typhimurium ATCC 700408, and Pseudomonas aeruginosa ATCC 27853).
(§2) An inoculum of the frozen stock (−20 °C) was utilized to inoculate Mueller–Hinton Agar (Biokar, Beauvais, France), where it was incubated for 24 h at 37 °C to revive the bacteria. Then, an inoculum was removed from a bacterial colony and diluted to 0.5 McFarland in sterile salt water (0.9% NaCl) before being transferred to a sterile tube where the weighty particles were left to settle for 5 min. The top homogeneous solutions were transferred to a new, sterile tube and their concentration was adjusted to the 0.5 McFarland turbidity standard to obtain an inoculum of about […], which was used in the antibacterial testing
(§3) The minimum inhibitory concentration (MIC) is the lowest essential oil concentration that could prevent the growth of bacteria. […]
(§4) The MBC was determined to be the minimum concentration at which no growth occurred in the medium. […]

Another test has as its system S. aureus ATCC 29213. The experiment in a line: MIC and MBC determination. It counts as cell-based, Staphylococcus aureus. The arrangement: MBC: unit not given beside the values. As to the method:
as §1, §2, §3, §4

Test [1] has as its system S. typhimurium ATCC 700408. The experiment in a line: MIC and MBC determination. It counts as cell-based, Salmonella typhimurium. As to the method:
as §1, §2
(§5) The minimum inhibitory concentration (MIC) is the lowest essential oil concentration that could prevent the growth of bacteria. The determination of MIC values against bacteria was conducted according to the previously reported procedure with a minor change, using Mueller–Hinton broth (Biokar, Beauvais, France) and bacteria. Twenty-four h of incubation was done at 37 °C. The antibiotic chloramphenicol served as a positive control. In sterile microtubes, two-fold serial dilutions of EO concentrations ranging from 4% to 0.0625 % (v/v) were made in Mueller–Hinton broth containing 5% of DMSO. […] Then, 5 µL of the previously produced bacterial suspension was added to each tube. Each suspension was homogenized and incubated for 24 h at 37 °C. As a first negative control, microtubes containing liquid medium and EO were used. […]
as §4

In the next test the test system is E. coli ATCC 25922. Briefly: MIC and MBC determination. Also noted: MBC: unit not given beside the values. It counts as cell-based, Escherichia coli. Here is the method: as §1, §2, §3, §4
In test [2] the test system is L. monocytogenes ATCC 13932. The experiment in a line: MIC and MBC determination. The arrangement: MIC / MBC: unit not given beside the values. The class given is cell-based, Listeria monocytogenes. As to the method:
as §1, §2, §5, §4

The next test concerns B. subtilis ATCC 6633. The experiment in a line: MIC and MBC determination. The class given is cell-based, Bacillus subtilis. Also noted: MIC / MBC: unit not given beside the values. As to the method:
as §1, §2, §5, §4

Test [3] in a line: DPPH radical-scavenging activity. Here is the method: The essential oil of Mentha piperita was performed using a 1,1-diphenyl-2-picryl hydrazyl (DPPH) technique, as reported in Brand-Williams et al. with some changes. Briefly, a 2.5 mL aliquot of DPPH solution was mixed with 1.25 mL of the essential oil at a concentration of 1 mg/mL, and then the obtained solution was incubated at 25 °C for 30 min. The absorbance was measured at 517 nm.

Test [4] is described as follows: Trolox equivalent antioxidant capacity (ABTS) assay. Here is the method:
The assay was carried out using the ABTS^+ method as described by Re et al. with some modifications. Briefly, the ABTS radical cation was generated by mixing 10 mL of 2 mM ABTS with 100 µL of potassium persulfate (2.45 mM). After the reaction mixture is kept in the dark at room temperature for 16 h, methanol is used to dilute the ABTS solution to obtain an absorbance of 0.700 at 734 nm. Two hundred µL of the essential (1 mg/mL) was mixed with 2 mL of diluted ABTS solution. The mixture was allowed to react for 1 min, and the absorbance was measured at 734 nm. Trolox is used as a reference standard. The results were expressed as an IC50 value (µg/mL).

A further test can be described thus: H2O2-scavenging activity. As to the method: The H2O2 radical scavenging activity of extracts was determined according to the method described by Ruch et al.. Briefly, 40 mM of H2O2 solution was prepared in phosphate buffer (pH 7.4). A total of 1 mL of M. piperita HE at a concentration of 1 mg/mL was added to 0.6 mL of H2O2 solution. The mixture was incubated at 25 °C for 10 min, and the absorbance of H2O2 was determined at 230 nm against a blank solution containing phosphate buffer without H2O2. The positive control used is Ascorbic acid. The H2O2 trapping capacity was expressed as an IC50 value (µg/mL).

Test [5] deals with carrageenan-induced rat paw edema. Briefly: Carrageenan-induced paw edema. It counts as in vivo, Wistar rats. The note with it: EO 100 mg/kg oral, indomethacin 10 mg/kg. Here is the method:
The studies were carried out on adult rats of the Wistar strain, obtained from the central animal facility of the Faculty of Medicine and Pharmacy of Rabat. These rats weighed between 200 and 250 g. The temperature was maintained at 20 °C with a lighting cycle of 12 h of light and 12 h of darkness. The study was approved by the Ethics Committee from Mohammed V University, (Protocol code # UA-2021-09; date of approval 27 May 2021).
The anti-inflammatory effects were studied using the carrageenan-induced paw edema method previously described by Musa G. Rege et al.. Briefly, Wistar rats (160 to 200 g) were randomly divided into […] (n = 6). The first two groups were orally administered with 100 mg/kg of M. pepirita EO. The third group was a negative control which received distilled water, while the last group was considered a positive control and received indomethacin (10 mg/kg) as the reference anti-inflammatory drug. After 60 min, all rats were injected subcutaneously with carrageenan solution (0.05 mL of 1% carrageenan suspended in 0.9% NaCl) into the subplantar region of the left hind paw. […] The anti-inflammatory effect is calculated using the following equation. In each group, the anti-inflammatory effect is measured by the percentage of edema inhibition (% INH) in paw volume, as follows: %INH = (mean [VL − VR] Control − mean [VL − VR] Treated)/[VL − VR] Control × 100 • With: VL: volume of the left paw. • VR: volume of the right paw.
In general terms: The carrageenan paw model is a standard test of acute inflammation.

Setting [6] is: chloramphenicol, unit not given.

Take `O=C(N[C@H](CO)[C@H](O)c1ccc([N+](=O)[O-])cc1)C(Cl)Cl` [Chloramphenicol]: the MBC in the test on P. aeruginosa ATCC 27853 is >64.0; with S. aureus ATCC 29213 (setting [6]) it was 4.0; in test [1] (setting [6]), 64.0; in the test on E. coli ATCC 25922 (setting [6]) it was 8.0; in [2] (setting [6]) it was 2.0; against B. subtilis ATCC 6633 (setting [6]), 32.0. For the same compound, the MIC against P. aeruginosa ATCC 27853 is given as >64.0; in [1] (setting [6]), 64.0; in test [2] (setting [6]), 2.0; against B. subtilis ATCC 6633 (setting [6]) it was 32.0. The MBC/MIC (with S. aureus ATCC 29213; in test [1]; against E. coli ATCC 25922; in test [2]; with B. subtilis ATCC 6633) was 1.0 in each case.
With `O=C1O[C@H]([C@@H](O)CO)C(O)=C1O` [Ascorbic acid], the “DPPH IC50” value in test [3] was 09.03 ± 0.02 ^a µg/mL. In addition, the “ABTS Test IC50” value in test [4] was 74.81 ± 0.01 ^a µg/mL. The “H2O2 IC50” value in the test “H2O2-scavenging activity” is 3.23 ± 0.08 ^a µg/mL.
In the case of `COc1ccc2c(c1)c(CC(=O)O)c(C)n2C(=O)c1ccc(Cl)cc1` [Indomethacin], the “Mean Edema Volume (Left-Right Paw)” value in test [5] (1 h 30 min) is 0.146 ± 0.04 mL; in test [5] (3 h) it was 0.178 ± 0.01 mL; in [5] (6 h), 0.191 ± 0.01 mL. In addition, the “Percentage Inhibition of Edema” value in test [5] (1 h 30 min) was determined as 69.77%; in test [5] (3 h) it was 70.23%; in test [5] (6 h) it was 59.61%.
